Consider one molecule from US7034020B2, “Derivatives of butyric acid and uses thereof” (The University of Arkansas for Medical Science, priority 1999, dated 2006).

Structures are written as SMILES.

The assay deals with total anti-ovalbumin antibody in the serum. Kind of assay: Primary anti-ovalbumin antibody production in vivo (ELISA), derivatives on Days 1–3. Also noted: species or system C57BL/10 mice. Particulars: 0.091 mmol ip Days 1–3; serum day 10. As for the experimental part: C57BL/10 mice are injected ip on Day 0 with ovalbumin followed by ip injections of saline, or one of three different butyrate derivatives on Days 1–3.
The butyrate derivatives are tested for their ability to suppress lymphocyte activity in vivo. C57BL/10 mice (5 mice/group) are injected ip with 100 μg of ovalbumin in conjunction with complete Freund's adjuvant on Day 0. In one experiment, the mice also receive one ip injection per day of the butyrate derivatives (0.091 mmol) on Days 1–3. Serum samples are obtained 10 days after the initial injection with ovalbumin, and tested for the presence of anti-ovalbumin antibodies using an ELISA. To perform the ELISA 96 well plates (Costar 3595) are first incubated with ovalbumin (100 μl/well of 100 μg/ml in PBS) overnight at 4° C. The plates are then washed 4 times with PBS and 0.5% Tween 20, blocked with 1% fetal calf serum for 30 minutes at 37° C., and washed again. Individual serum samples are added (diluted 1/100 or 1/1000 in PBS), and the plates are incubated for 2 hours at 20° C. The plates were next washed 7 times with PBS/Tween, and alkaline phosphate (AP)-labeled goat anti-mouse IgG, IgA, IgM (H+L) (Zymed) is added ( 1/1000) for 1 hour at 20° C. The plates are again washed 7 times with PBS/Tween, alkaline phosphate substrate (1 mg/ml) is added. After 10 minutes, Ig levels are quantified by an ELISA reader (absorbance 405 nm). The concentration of anti-ovalbumin is determined by comparison with a standard curve obtained using mouse anti-ovalbumin antibody (Sigma; St. Louis, Mo.). To measure isotype-specific anti-ovalbumin antibodies, serum samples (diluted at 1/300 or 1/1000) are incubated on the ovalbumin-coated plates as described above. […] Ig levels are presented as OD measurements.

For `CCCC(=O)OCCN1CCOCC1.Cl` [MEB, 2-(4-Morpholinyl)ethyl butyrate hydrochloride], the “Decrease of primary anti-ovalbumin antibody response versus saline” value is recorded as 65%.
